Patent publication US8461083B2, “Herbicidal compounds” (Syngenta Limited, priority 2008, dated 2013)

How the values were obtained:
Assay type in all cases: in vivo
[1] = test system: Setaria faberi (SETFA); assay: Post-emergence herbicidal glasshouse test; conditions: post-emergence (sprayed after 8 days cultivation), evaluated after 13 days, 100=total damage to plant, 0=no damage to plant; for POST Application SETFA, damage to plant: 1000 g/ha; for pest or weed control at 1000 g/ha: Setaria faberi, 312 h, read-out: POST Application SETFA, damage to plant
Method: (§1) Seeds of a variety of test species were sown in standard soil in pots (Alopecurus myosuroides (ALOMY), Setaria faberi (SETFA), Echinochloa crus-galli (ECHCG), Solanum nigrum (SOLNI) and Amaranthus retoflexus (AMARE)). After cultivation for one day (pre-emergence) or after 8 days cultivation (post-emergence) under controlled conditions in a glasshouse (at 24/16° C., day/night; 14 hours light; 65% humidity), the plants were sprayed with an aqueous spray solution derived from the formulation of the technical active ingredient in acetone/water (50:50) solution containing 0.5% Tween 20 (polyoxyethelyene sorbitan monolaurate, CAS RN 9005-64-5). Compounds were applied at 1000 g/ha. The test plants were then grown in a glasshouse under controlled conditions in a glasshouse (at 24/16° C., day/night; 14 hours light; 65% humidity) and watered twice daily. After 13 days for pre and post-emergence, the test was evaluated (100=total damage to plant; 0=no damage to plant).

[2] = test system: Amaranthus retoflexus (AMARE); assay: Post-emergence herbicidal glasshouse test; conditions: post-emergence (sprayed after 8 days cultivation), evaluated after 13 days, 100=total damage to plant, 0=no damage to plant; for POST Application AMARE, damage to plant: 1000 g/ha; for pest or weed control at 1000 g/ha: Amaranthus retroflexus, 312 h, read-out: POST Application AMARE, damage to plant
Method: as §1

[3] = test system: Solanum nigrum (SOLNI); assay: Post-emergence herbicidal glasshouse test; conditions: post-emergence (sprayed after 8 days cultivation), evaluated after 13 days, 100=total damage to plant, 0=no damage to plant; for POST Application SOLNI, damage to plant: 1000 g/ha; for pest or weed control at 1000 g/ha: Solanum nigrum, 312 h, read-out: POST Application SOLNI, damage to plant
Method: as §1

[4] = test system: Alopecurus myosuroides (ALOMY); assay: Post-emergence herbicidal glasshouse test; conditions: post-emergence (sprayed after 8 days cultivation), evaluated after 13 days, 100=total damage to plant, 0=no damage to plant; for POST Application ALOMY, damage to plant: 1000 g/ha; for pest or weed control at 1000 g/ha: Alopecurus myosuroides, 312 h, read-out: POST Application ALOMY, damage to plant
Method: as §1

[5] = test system: Echinochloa crus-galli (ECHCG); assay: Post-emergence herbicidal glasshouse test; conditions: post-emergence (sprayed after 8 days cultivation), evaluated after 13 days, 100=total damage to plant, 0=no damage to plant; for POST Application ECHCG, damage to plant: 1000 g/ha; for pest or weed control at 1000 g/ha: Echinochloa crus-galli, 312 h, read-out: POST Application ECHCG, damage to plant
Method: as §1

[6] = test system: Setaria faberi (SETFA); assay: Pre-emergence herbicidal glasshouse test; conditions: pre-emergence (sprayed after one day cultivation), evaluated after 13 days, 100=total damage to plant, 0=no damage to plant; for PRE Application SETFA, damage to plant: 1000 g/ha; for pest or weed control at 1000 g/ha: Setaria faberi, 312 h, read-out: PRE Application SETFA, damage to plant
Method: as §1

[7] = test system: Amaranthus retoflexus (AMARE); assay: Pre-emergence herbicidal glasshouse test; conditions: pre-emergence (sprayed after one day cultivation), evaluated after 13 days, 100=total damage to plant, 0=no damage to plant; for PRE Application AMARE, damage to plant: 1000 g/ha; for pest or weed control at 1000 g/ha: Amaranthus retroflexus, 312 h, read-out: PRE Application AMARE, damage to plant
Method: as §1

[8] = test system: Solanum nigrum (SOLNI); assay: Pre-emergence herbicidal glasshouse test; conditions: pre-emergence (sprayed after one day cultivation), evaluated after 13 days, 100=total damage to plant, 0=no damage to plant; for PRE Application SOLNI, damage to plant: 1000 g/ha; for pest or weed control at 1000 g/ha: Solanum nigrum, 312 h, read-out: PRE Application SOLNI, damage to plant
Method: as §1

[9] = test system: Alopecurus myosuroides (ALOMY); assay: Pre-emergence herbicidal glasshouse test; conditions: pre-emergence (sprayed after one day cultivation), evaluated after 13 days, 100=total damage to plant, 0=no damage to plant; for PRE Application ALOMY, damage to plant: 1000 g/ha; for pest or weed control at 1000 g/ha: Alopecurus myosuroides, 312 h, read-out: PRE Application ALOMY, damage to plant
Method: as §1

[10] = test system: Echinochloa crus-galli (ECHCG); assay: Pre-emergence herbicidal glasshouse test; conditions: pre-emergence (sprayed after one day cultivation), evaluated after 13 days, 100=total damage to plant, 0=no damage to plant; for PRE Application ECHCG, damage to plant: 1000 g/ha; for pest or weed control at 1000 g/ha: Echinochloa crus-galli, 312 h, read-out: PRE Application ECHCG, damage to plant
Method: as §1

Row | Structure (SMILES) | POST Application SETFA, damage to plant [1] | POST Application AMARE, damage to plant [2] | POST Application SOLNI, damage to plant [3] | POST Application ALOMY, damage to plant [4] | POST Application ECHCG, damage to plant [5] | PRE Application SETFA, damage to plant [6] | PRE Application AMARE, damage to plant [7] | PRE Application SOLNI, damage to plant [8] | PRE Application ALOMY, damage to plant [9] | PRE Application ECHCG, damage to plant [10] | pest or weed control at 1000 g/ha [1] | pest or weed control at 1000 g/ha [2] | pest or weed control at 1000 g/ha [3] | pest or weed control at 1000 g/ha [4] | pest or weed control at 1000 g/ha [5] | pest or weed control at 1000 g/ha [6] | pest or weed control at 1000 g/ha [7] | pest or weed control at 1000 g/ha [8] | pest or weed control at 1000 g/ha [9] | pest or weed control at 1000 g/ha [10]
1 | CCCCC(C)Oc1ccc2cc(C(=O)C3C(=O)CCCC3=O)c(C(F)(F)F)nc2n1 (stereo not shown) [Compound 1.56] | 80 | 70 | 80 | 30 | 70 | 90 | 40 | 100 | 20 | 80 |  |  |  |  |  |  |  |  |  | 
2 | CS(=O)(=O)c1ccc2cc(C(=O)C3C(=O)CCCC3=O)c(C(F)(F)F)nc2n1 [Compound 1.20] |  |  |  |  |  |  |  |  |  |  | 100% | 80% | 100% | 20% | 90% | 80% | 30% | 100% | 20% | 70%
3 | O=C1CCCC(=O)C1C(=O)c1cc2ccc(OC3CCCC3)nc2nc1C(F)(F)F [Compound 1.16] | 90 | 70 | 90 | 70 | 70 | 90 | 80 | 90 | 60 | 90 |  |  |  |  |  |  |  |  |  | 
4 | CCCOCCn1c(=O)ccc2cc(C(=O)C3C(=O)CCCC3=O)c(C(F)(F)F)nc21 [Compound 2.17] | 90 | 90 | 90 | 30 | 80 | 50 | 40 | 80 | 10 | 80 |  |  |  |  |  |  |  |  |  | 
5 | CCOC(F)(F)c1nc2nc(C)c(F)cc2cc1C(=O)C1C(=O)CCCC1=O [Compound 1.102, 2-[2-(Ethoxydifluoromethyl)-6-fluoro-7-methyl-[1,8]-naphthyridine-3-carbonyl]-cyclohexane-1,3-dione] |  |  |  |  |  |  |  |  |  |  | 80% | 90% | 60% | 60% | 80% | 100% | 100% | 100% | 30% | 90%
6 | CC(C)n1c(=O)ccc2cc(C(=O)C3C(=O)CCCC3=O)c(C(F)(F)F)nc21 [Compound 2.10, 2-{8-isopropyl-7-oxo-7,8-dihydro-2-trifluoromethyl-[1,8]-naphthyridine-3-carbony}-cyclohexane-1,3-dione] |  |  |  |  |  |  |  |  |  |  | 90% | 100% | 100% | 80% | 90% | 80% | 80% | 90% | 50% | 90%
7 | COCCNc1nc2nc(C(F)(F)F)c(C(=O)C3C(=O)CCCC3=O)cc2cc1F [Compound 1.83, 2-[6-fluoro-7-(2-methoxyethylamino)-2-trifluoromethyl-[1,8]-naphthyridine-3-carbony]-cyclohexane-1,3-dione] | 80 | 80 | 80 | 80 | 80 | 100 | 100 | 100 | 60 | 100 |  |  |  |  |  |  |  |  |  | 
8 | COCc1nc2ncc(F)cc2cc1C(=O)C1C(=O)CCCC1=O [Compound 1.74, 2-[6-fluoro-2-methoxymethyl-[1,8]-naphthyridine-3-carbony]-cyclohexane-1,3-dione] | 80 | 90 | 80 | 40 | 80 | 100 | 100 | 100 | 70 | 100 |  |  |  |  |  |  |  |  |  | 
9 | O=C(c1cc2cc(F)c(O)nc2nc1C(F)(F)F)C1C(=O)C2CCC(C2)C1=O (stereo not shown) [Compound 3.1] |  |  |  |  |  |  |  |  |  |  | 80% | 80% | 80% | 60% | 70% | 90% | 100% | 100% | 60% | 90%
10 | Cc1nc2nc(C(F)F)c(C(=O)C3C(=O)CCCC3=O)cc2cc1F [Compound 1.78, 2-(2-difluoromethyl-6-fluoro-7-methyl-[1,8]-naphthyridine-3-carbonyl)-cyclohexane-1,3-dione] |  |  |  |  |  |  |  |  |  |  | 90% | 100% | 80% | 60% | 90% | 100% | 100% | 100% | 80% | 100%
11 | O=C1CCCC(=O)C1C(=O)c1cc2cc(F)c(NCC(F)(F)F)nc2nc1C(F)(F)F [Compound 1.90, 2-[6-fluoro-7-(2,2,2-trifluoroethylamino)-2-trifluoromethyl-[1,8]-naphthyridine-3-carbony]-cyclohexane-1,3-dione] |  |  |  |  |  |  |  |  |  |  | 90% | 80% | 90% | 80% | 90% | 100% | 100% | 100% | 70% | 100%
12 | Cc1nc2nc(C(F)(F)F)c(C(=O)C3C(=O)C(C)(C)OC(C)(C)C3=O)cc2cc1F [Compound 5.2] |  |  |  |  |  |  |  |  |  |  | 80% | 90% | 70% | 70% | 80% | 100% | 100% | 100% | 90% | 100%
13 | CCN(CC)c1nc2nc(C(F)(F)F)c(C(=O)C3C(=O)CCCC3=O)cc2cc1F [Compound 1.73, 2-[7-(diethylamino)-6-fluoro-2-trifluoromethyl-[1,8]-naphthyridine-3-carbony]-cyclohexane-1,3-dione] |  |  |  |  |  |  |  |  |  |  | 80% | 70% | 70% | 60% | 80% | 100% | 70% | 100% | 60% | 100%
